In ChEMBL document CHEMBL3603790, “2- and 3-Fluoro-3-deazaneplanocins, 2-fluoro-3-deazaaristeromycins, and 3-methyl-3-deazaneplanocin: Synthesis and antiviral properties” (Bioorg Med Chem, 2015):
The source made the active and inactive calls. No cut-off for these calls is given here.

Experiments:
Yellow fever virus = experiment: Antiviral activity against Yellow fever virus infected in African green monkey Vero cells after 3 days by neutral red dye-based plaque reduction assay; format: functional, organism-based; conditions: 72 h
Rift Valley fever virus = experiment: Antiviral activity against Rift Valley fever virus infected in African green monkey Vero 76 cells after 3 days by neutral red dye-based plaque reduction assay; format: functional, organism-based; conditions: for IC50: 72 h
Tacaribe virus = experiment: Antiviral activity against Tacaribe virus infected in African green monkey Vero 76 cells after 3 days by neutral red dye-based plaque reduction assay; format: functional, organism-based; conditions: Mammarenavirus tacaribeense; for IC50: 72 h
Dengue virus = experiment: Antiviral activity against Dengue virus infected in African green monkey Vero cells after 3 days by neutral red dye-based plaque reduction assay; format: functional, organism-based; conditions: for IC50: 72 h
Measles morbillivirus = experiment: Antiviral activity against Measles virus infected in African green monkey CV1 cells after 3 days by neutral red dye-based plaque reduction assay; format: functional, organism-based; conditions: CV-1, 72 h
[1] = Cytotoxicity against African green monkey Vero cells; format: cell-based; conditions: chlorocebus sabaeus, Vero cells
[2] = Cytotoxicity against African green monkey Vero 76 cells; format: cell-based; conditions: chlorocebus sabaeus; for CC50: Vero 76 cells
[3] = Cytotoxicity against African green monkey CV1 cells; format: cell-based, CV-1; conditions: chlorocebus aethiops
[4] = Selectivity index, ratio of CC50 for African green monkey Vero cells to IC50 for Yellow fever virus; format: functional
[5] = Selectivity index, ratio of CC50 for African green monkey CV1 cells to IC50 for Measles virus; format: functional, CV-1
West Nile virus = experiment: Antiviral activity against WNV infected in African green monkey Vero 76 cells after 3 days by neutral red dye-based plaque reduction assay; format: functional, organism-based
Vaccinia virus = experiment: Antiviral activity against Vaccinia virus infected in HEL cells after 3 days by neutral red dye-based plaque reduction assay; format: functional, organism-based; conditions: Orthopoxvirus vaccinia
[6] = system: Respiratory syncytial virus; experiment: Antiviral activity against Respiratory syncytial virus infected in human HeLa cells after 3 days by neutral red dye-based plaque reduction assay; format: functional, organism-based
[7] = system: Respiratory syncytial virus; experiment: Antiviral activity against Respiratory syncytial virus infected in monkey MA104 cells after 3 days by neutral red dye-based plaque reduction assay; format: functional, organism-based
[8] = system: Venezuelan equine encephalitis virus; experiment: Antiviral activity against Venezuelan equine encephalitis virus infected in African green monkey Vero cells after 3 days by neutral red dye-based plaque reduction assay; format: functional, organism-based
Hepatitis C virus = experiment: Antiviral activity against Hepatitis C virus infected in human Ava5 cells after 3 days by neutral red dye-based plaque reduction assay; format: functional, organism-based; conditions: Hepacivirus hominis
HEL = experiment: Cytotoxicity against HEL cells; format: cell-based; conditions: human
[9] = Cytotoxicity against monkey MA104 cells; format: cell-based, Macaca mulatta; conditions: rhesus monkey
[10] = Cytotoxicity against human Ava5 cells; format: cell-based
[11] = Inhibition of rabbit erythrocytic AdoHcy hydrolase using AdoHcy as substrate assessed as formation of L-homocysteine preincubated for 5 mins followed by substrate addition measured after 1 hr by thiol quantitation reagent-based assay; set-up: species or system Oryctolagus cuniculus
HeLa = experiment: Cytotoxicity against human HeLa cells; format: cell-based
Human betaherpesvirus 5 = experiment: Antiviral activity against HCMV infected in HFF after 3 days by neutral red dye-based plaque reduction assay; format: functional, organism-based; conditions: Human betaherpesvirus 5, 72 h
Influenza A virus [12] = experiment: Antiviral activity against Influenza A virus H5N1 infected in MDCK cells after 3 days by neutral red dye-based plaque reduction assay; format: functional, organism-based; conditions: 72 h
Influenza B virus = experiment: Antiviral activity against Influenza B virus infected in MDCK cells after 3 days by neutral red dye-based plaque reduction assay; format: functional, organism-based; conditions: 72 h
[13] = Cytotoxicity against African green monkey Vero 76 cells relative to control; format: cell-based; conditions: chlorocebus sabaeus
[14] = Cytotoxicity against African green monkey Vero cells relative to control; format: cell-based; conditions: chlorocebus sabaeus
[15] = Cytotoxicity against HFF; format: cell-based; conditions: human, HFF cells
[16] = Cytotoxicity against MDCK cells; format: cell-based, Canis lupus familiaris; conditions: dog, MDCK cells
[17] = Cytotoxicity against MDCK cells relative to control; format: cell-based, Canis lupus familiaris; conditions: dog
[18] = Selectivity index, ratio of CC50 for African green monkey Vero 76 cells to IC50 for Rift Valley fever virus; format: functional
[19] = Selectivity index, ratio of CC50 for African green monkey Vero 76 cells to IC50 for Tacaribe virus; format: functional
[20] = Selectivity index, ratio of CC50 for African green monkey Vero cells to IC50 for Dengue virus; format: functional
[21] = Selectivity index, ratio of CC50 for HFF to IC50 for HCMV; format: functional
[22] = Selectivity index, ratio of CC50 for MDCK cells to IC50 for Influenza A virus H5N1 virus; format: functional
[23] = Selectivity index, ratio of CC50 for MDCK cells to IC50 for Influenza B virus; format: functional
Cowpox virus = experiment: Antiviral activity against Cowpox virus infected in HFF after 3 days by neutral red dye-based plaque reduction assay; format: functional, organism-based
Enterovirus = experiment: Antiviral activity against Rhinovirus infected in human HeLa Ohio-1 cells after 3 days by neutral red dye-based plaque reduction assay; format: functional, organism-based
unidentified adenovirus = experiment: Antiviral activity against Adenovirus infected in human A549 cells after 3 days by neutral red dye-based plaque reduction assay; format: functional, organism-based
Influenza A virus [24] = experiment: Antiviral activity against Influenza A virus H1N1 infected in MDCK cells after 3 days by neutral red dye-based plaque reduction assay; format: functional, organism-based
Influenza A virus [25] = experiment: Antiviral activity against Influenza A virus H3N2 infected in MDCK cells after 3 days by neutral red dye-based plaque reduction assay; format: functional, organism-based
MA104 = experiment: Antiviral activity against Parainfluenza virus infected in monkey MA104 cells after 3 days by neutral red dye-based plaque reduction assay; format: functional, cell-based; conditions: Paramyxoviridae
SARS-CoV = experiment: Antiviral activity against SARS coronavirus infected in African green monkey Vero E6 cells after 3 days by neutral red dye-based plaque reduction assay; format: functional, organism-based; conditions: Severe acute respiratory syndrome-related coronavirus
[26] = Cytotoxicity against human HeLa Ohio-1 cells; format: cell-based
A549 = experiment: Cytotoxicity against human A549 cells; format: cell-based
[27] = Cytotoxicity against African green monkey Vero E6 cells; format: cell-based; conditions: chlorocebus sabaeus
Hepatitis B virus = experiment: Antiviral activity against HBV infected in human HepG22.2.15 cells after 3 days by neutral red dye-based plaque reduction assay; format: functional, organism-based; conditions: HepG2 2.2.15, 72 h
[28] = Cytotoxicity against human […] cells; format: cell-based

Nc1nc(F)cc2c1ncn2[C@@H]1C[C@H](CO)[C@@H](O)[C@H]1O
IC50 (Yellow fever virus): 2.1 µM | Activity (Rift Valley fever virus): inactive | Activity (Tacaribe virus): inactive | Activity (Dengue virus): inactive | IC50 (Measles morbillivirus): 9.6 µM | CC50 [1]: > 355 µM | Activity ([2]; vero 76): Non-toxic | CC50 [3]: > 355 µM | Ratio CC50/IC50 [4]: >170 | Ratio CC50/IC50 [5]: >37 | Activity (West Nile virus): inactive | Activity (Vaccinia virus): inactive | Activity [6]: inactive | Activity [7]: inactive | Activity [8]: inactive | Activity (Hepatitis C virus): inactive | Activity (HEL): Non-toxic | Activity [9]: Non-toxic | Activity [10]: Non-toxic | IC50 [11]: 3.32 µM | Activity (HeLa): Non-toxic

Nc1ncc(F)c2c1ncn2[C@@H]1C=C(CO)[C@@H](O)[C@H]1O
IC50 (Yellow fever virus): > 224 µM | IC50 (Rift Valley fever virus): 6.4 µM | IC50 (Tacaribe virus): < 0.36 µM | IC50 (Dengue virus): 7.1 µM | IC50 (Human betaherpesvirus 5): 0.3 µM | IC50 (Influenza A virus [12]): 1 µM | IC50 (Influenza B virus): < 0.36 µM | CC50 [1]: 224 µM | CC50 [2]: 36 µM | CC50 [13]: 114 µM | CC50 [14]: 35.7 µM | CC50 [15]: > 300 µM | CC50 [16]: 32.5 µM | CC50 [17]: > 357 µM | Ratio CC50/IC50 [18]: 5.6 | Ratio CC50/IC50 [19]: >317 | Ratio CC50/IC50 [20]: 5 | Ratio CC50/IC50 [21]: > 1040 | Ratio CC50/IC50 [22]: 34 | Ratio CC50/IC50 [23]: >1000 | Activity (West Nile virus): inactive | Activity (Cowpox virus): inactive | Activity (Vaccinia virus): inactive | Activity (Enterovirus): inactive | Activity (unidentified adenovirus): inactive | Activity [6]: inactive | Activity [7]: inactive | Activity (Influenza A virus [24]): inactive | Activity (Influenza A virus [25]): inactive | Activity [8]: inactive | Activity (MA104): inactive | Activity (SARS-CoV): inactive | Activity (HEL): Non-toxic | Activity [26]: Non-toxic | Activity (A549): Non-toxic | Activity [9]: Non-toxic | IC50 [11]: 0.0068 µM | Activity (HeLa): Non-toxic | Activity [27]: Non-toxic

NC(=O)c1ncn([C@@H]2O[C@H](CO)[C@@H](O)[C@H]2O)n1 [RIBAVIRIN]
IC50 (Rift Valley fever virus): 37.3 µM | IC50 (Tacaribe virus): 26.7 µM | IC50 (Influenza B virus): 9 µM | CC50 [2]: > 1000 µM | CC50 [13]: > 1000 µM | CC50 [17]: > 100 µM

Cc1cnc(N)c2ncn([C@@H]3C=C(CO)[C@@H](O)[C@H]3O)c12
IC50 (Yellow fever virus): 3.6 µM | IC50 (Rift Valley fever virus): > 36 µM | IC50 (Tacaribe virus): 1.2 µM | IC50 (Dengue virus): > 228 µM | IC50 (Human betaherpesvirus 5): 6.4 µM | IC50 (Influenza A virus [12]): 76 µM | IC50 (Influenza B virus): 1.1 µM | CC50 [1]: > 362 µM | CC50 [2]: 36 µM | CC50 [13]: 83.3 µM | CC50 [14]: 228 µM | CC50 [15]: 247 µM | CC50 [16]: 250 µM | CC50 [17]: > 362 µM | Ratio CC50/IC50 [4]: >100 | Ratio CC50/IC50 [19]: 72 | Ratio CC50/IC50 [21]: 38.6 | Ratio CC50/IC50 [22]: 3.3 | Ratio CC50/IC50 [23]: >320 | Activity (West Nile virus): inactive | Activity (Cowpox virus): inactive | Activity (Vaccinia virus): inactive | Activity (Enterovirus): inactive | Activity (unidentified adenovirus): inactive | Activity [6]: inactive | Activity [7]: inactive | Activity (Influenza A virus [24]): inactive | Activity (Influenza A virus [25]): inactive | Activity [8]: inactive | Activity (MA104): inactive | Activity (SARS-CoV): inactive | Activity (HEL): Non-toxic | Activity [26]: Non-toxic | Activity (A549): Non-toxic | Activity [9]: Non-toxic | IC50 [11]: 0.041 µM | Activity (HeLa): Non-toxic | Activity [27]: Non-toxic

Nc1ncc(F)c2c1ncn2[C@@H]1C=C(CCO)[C@@H](O)[C@H]1O
IC50 (Yellow fever virus): 1.5 µM | IC50 (Rift Valley fever virus): 1.3 µM | IC50 (Tacaribe virus): < 0.34 µM | IC50 (Dengue virus): 15 µM | IC50 (Human betaherpesvirus 5): 5.1 µM | IC50 (Influenza A virus [12]): 139 µM | IC50 (Influenza B virus): 1 µM | CC50 [1]: > 340 µM | CC50 [2]: 3.4 µM | CC50 [13]: 190 µM | CC50 [14]: 109 µM | CC50 [15]: > 300 µM | CC50 [16]: > 340 µM | CC50 [17]: > 340 µM | Ratio CC50/IC50 [4]: >240 | Ratio CC50/IC50 [18]: 2.6 | Ratio CC50/IC50 [19]: >560 | Ratio CC50/IC50 [20]: 7.3 | Ratio CC50/IC50 [21]: 759 | Ratio CC50/IC50 [22]: >2.4 | Ratio CC50/IC50 [23]: >340 | Activity (West Nile virus): inactive | Activity (Cowpox virus): inactive | Activity (Vaccinia virus): inactive | Activity (Enterovirus): inactive | Activity (unidentified adenovirus): inactive | Activity [6]: inactive | Activity [7]: inactive | Activity (Influenza A virus [24]): inactive | Activity (Influenza A virus [25]): inactive | Activity [8]: inactive | Activity (MA104): inactive | Activity (SARS-CoV): inactive | Activity (HEL): Non-toxic | Activity [26]: Non-toxic | Activity (A549): Non-toxic | Activity [9]: Non-toxic | IC50 [11]: 0.145 µM | Activity (HeLa): Non-toxic | Activity [27]: Non-toxic

Nc1ccn([C@@H]2CS[C@H](CO)O2)c(=O)n1 [LAMIVUDINE]
IC50 (Hepatitis B virus): 0.039 µM | CC50 [28]: 2180 µM

Nc1nc2c(ncn2COC(CO)CO)c(=O)[nH]1 [GANCICLOVIR]
IC50 (Human betaherpesvirus 5): 3.6 µM | CC50 [15]: > 100 µM

Nc1cc2nc[nH]c2c(=O)[nH]1 [DEZAGUANINE]
IC50 (Measles morbillivirus): 4.1 µM | CC50 [3]: 250 µM
